Results taken from ChEMBL document CHEMBL1201862, “PubChem BioAssay data set” (2004).
pIC50: −log10 of the molar value. Active and inactive are the calls of the source.

How the values were obtained:
Mu-type opioid receptor [1] = biological target: T1, Mu-type opioid receptor (Homo sapiens, UniProt P35372); test: mu opioid receptor activators, image-based, SAR follow-up (AID 2352); assay type: functional
[2] = biological target: T2, Delta-type opioid receptor (Homo sapiens, UniProt P41143); test: DOR agonists, SAR follow-up, image-based (AID 2370); assay type: functional
[3] = biological target: T3, Kappa-type opioid receptor (Homo sapiens, UniProt P41145); test: kappa opioid receptor blockers, image-based, SAR follow-up (AID 2348); assay type: functional
Mu-type opioid receptor [4] = biological target: T1, Mu-type opioid receptor; test: mu opioid receptor blockers – image-based, SAR follow-up (AID 2420); assay type: functional;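 also: compounds added before stimulation of receptor with agonist DAMGO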
[5] = biological target: T3, Kappa-type opioid receptor; test: kappa opioid receptor activation potency – imaging, image-based, SAR follow-up (AID 2359); assay type: functional
[6] = biological target: T2, Delta-type opioid receptor; test: delta opioid receptor blockers – image-based, SAR follow-up (AID 2357); assay type: functional
[7] = biological target: T3, Kappa-type opioid receptor; test: kappa opioid receptor blockers, cell-based, luminescence, beta-arrestin, SAR follow-up (AID 2285); assay type: functional
[8] = biological target: Eukaryotic translation initiation factor 4H (Homo sapiens, UniProt Q15056); test: inhibitors of translation initiation factor eIF4H – SAR follow-up (AID 435011); assay type: functional
[9] = biological target: Polyadenylate-binding protein 1 (Homo sapiens, UniProt P11940); test: PABP inhibition in translation initiation, SAR follow-up (AID 435018); assay type: functional
J774.A1 = test: Confirmation of image-based Screening Assay for Inhibitors of Phagocytosis. [Related pubchem assays (depositor defined):AID1029, AID1643]; assay type: functional, cell-based; settings: Mus musculus
Protein Rev = Protein Rev (Human immunodeficiency virus type 1 group M subtype B (isolate HXB2)(HIV-1), UniProt P04618); test: blockers of HIV Rev/RRE RNA complex – biochemical, fluorescence polarization, HIV-1, dose response (AID 434976); design: species or system Human immunodeficiency virus 1
[10] = biological target: Female germline-specific tumor suppressor gld-1 (Caenorhabditis elegans, UniProt Q17339); test: blockers of GLD-1/TGE RNA complex formation – biochemical, fluorescence polarization, C. elegans, dose response (AID 2802);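 also: fluorescence polarization of labeled TGE RNA bound by purified gld-1 protein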
[11] = biological target: T4, RNA-binding protein pos-1 (Caenorhabditis elegans, UniProt G5EF15); test: disruptors of C. elegans POS-1 RNA interaction – biochemical, fluorescence polarization, dose response (AID 1964);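 also: purified POS-1 fused to maltose binding protein made in E. coli; potency of compounds blocking POS-1 binding to fluorescent RNA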
T4 sequence (G5EF15 whole entry): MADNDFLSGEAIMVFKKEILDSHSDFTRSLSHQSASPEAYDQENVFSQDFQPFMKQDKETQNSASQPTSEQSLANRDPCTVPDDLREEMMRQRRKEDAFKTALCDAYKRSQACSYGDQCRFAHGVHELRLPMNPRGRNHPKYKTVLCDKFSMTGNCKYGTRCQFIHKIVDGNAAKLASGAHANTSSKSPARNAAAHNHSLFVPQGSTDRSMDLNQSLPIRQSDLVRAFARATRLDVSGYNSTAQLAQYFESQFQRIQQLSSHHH

[12] = biological target: T5, Zinc finger protein mex-5 (Caenorhabditis elegans, UniProt Q9XUB2); test: potency of MEX-5 RNA-binding blockers – biochemical, C. elegans, fluorescence polarization, dose response (AID 1960)
T5 sequence (Q9XUB2 whole entry): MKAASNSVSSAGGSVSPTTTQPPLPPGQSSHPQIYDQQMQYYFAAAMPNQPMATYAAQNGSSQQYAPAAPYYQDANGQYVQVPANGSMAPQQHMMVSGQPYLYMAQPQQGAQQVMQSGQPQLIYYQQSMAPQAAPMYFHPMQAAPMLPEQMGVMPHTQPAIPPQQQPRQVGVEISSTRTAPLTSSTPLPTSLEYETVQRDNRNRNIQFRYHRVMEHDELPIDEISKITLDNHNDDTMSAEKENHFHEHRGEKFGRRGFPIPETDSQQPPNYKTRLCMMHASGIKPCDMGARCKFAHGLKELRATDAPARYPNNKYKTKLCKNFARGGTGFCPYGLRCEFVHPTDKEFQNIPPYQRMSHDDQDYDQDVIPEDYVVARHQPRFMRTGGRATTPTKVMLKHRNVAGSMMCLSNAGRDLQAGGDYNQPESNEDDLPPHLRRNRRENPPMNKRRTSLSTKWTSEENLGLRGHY

[13] = reduction of Shn3 3'UTR-driven luciferase in osteoblasts – cell-based, Clone20 osteoblasts, firefly luciferase, cherry-picked, dose response (AID 624132); assay type: functional;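 also: firefly luciferase luminescence from reporter carrying the Shn3 3'UTR in osteoblasts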
[14] = non-specific 3'UTR reporter inhibition in Clone20-Shn3RL – cell-based, Renilla luciferase, cherry-picked, counter-screen for Shn3 inhibitor project, dose response (AID 624133); assay type: functional
[15] = biological target: Melanin-concentrating hormone receptor 1 (Homo sapiens, UniProt Q99705); test: Late-stage fluorescence-based counterscreen for antagonists of the G-protein coupled receptor 7 (GPR7): cell-based dose response assay to identify antagonists of the melanin-concentrating hormone receptor 1 (MCHR1). [Related pubchem assays (depositor defined):AID1861, AID1880, AID1952, AID2148, AID2251, AID2257, AID485339]; assay type: functional;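 also: stimulated with 30 nM MCH peptide agonist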
[16] = biological target: T6, Neuropeptides B/W receptor type 1 (Homo sapiens, UniProt P48145); test: human NPBW1 receptor blockade, IC50 – cell-based, fluorescence, dose response, late-stage follow-up (AID 463251); assay type: functional
T6 sequence (P48145 whole entry): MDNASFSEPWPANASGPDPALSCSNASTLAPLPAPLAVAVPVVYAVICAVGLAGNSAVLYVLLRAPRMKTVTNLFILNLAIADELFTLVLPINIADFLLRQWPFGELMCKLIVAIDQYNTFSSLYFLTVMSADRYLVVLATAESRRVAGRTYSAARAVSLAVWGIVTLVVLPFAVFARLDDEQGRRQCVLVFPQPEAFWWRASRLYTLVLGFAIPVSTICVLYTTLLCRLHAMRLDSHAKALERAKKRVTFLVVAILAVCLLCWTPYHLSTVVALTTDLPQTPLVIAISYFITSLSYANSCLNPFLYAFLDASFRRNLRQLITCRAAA

Mu-type opioid receptor [17] = biological target: T1, Mu-type opioid receptor; test: SAR Analysis of Antagonists of the MOR Receptor using an Image-Based Assay - Set 3. [Related pubchem assays (depositor defined):AID1777, AID1785, AID1786, AID1966, AID2133, AID2136, AID2284, AID2285, AID2420]; assay type: functional
[18] = biological target: T2, Delta-type opioid receptor; test: SAR Analysis of Antagonists of the DOR Receptor using an Image-Based Assay - Set 3. [Related pubchem assays (depositor defined):AID1777, AID1785]; assay type: functional
[19] = biological target: T3, Kappa-type opioid receptor; test: SAR analysis of small molecule antagonists of the kappa opioid receptor via a luminescent beta-arrestin assay - Set 3. [Related pubchem assays (depositor defined):AID1777, AID1778, AID1785, AID1786, AID1966, AID2133, AID2136, AID2285, AID2495]; assay type: functional
[20] = biological target: T3, Kappa-type opioid receptor; test: SAR analysis of Antagonists of the Kappa Opioid Receptor (KOR) using an Image-Based Assay - Set 4. [Related pubchem assays (depositor defined):AID1777, AID1785]; assay type: functional
[21] = biological target: T7, Tyrosine-protein phosphatase non-receptor type 7 (Homo sapiens, UniProt P35236); test: redox-active compounds inhibiting HePTP phosphatase – biochemical, fluorescence, mechanism study (AID 2068); assay type: functional
T7 sequence (P35236 whole entry): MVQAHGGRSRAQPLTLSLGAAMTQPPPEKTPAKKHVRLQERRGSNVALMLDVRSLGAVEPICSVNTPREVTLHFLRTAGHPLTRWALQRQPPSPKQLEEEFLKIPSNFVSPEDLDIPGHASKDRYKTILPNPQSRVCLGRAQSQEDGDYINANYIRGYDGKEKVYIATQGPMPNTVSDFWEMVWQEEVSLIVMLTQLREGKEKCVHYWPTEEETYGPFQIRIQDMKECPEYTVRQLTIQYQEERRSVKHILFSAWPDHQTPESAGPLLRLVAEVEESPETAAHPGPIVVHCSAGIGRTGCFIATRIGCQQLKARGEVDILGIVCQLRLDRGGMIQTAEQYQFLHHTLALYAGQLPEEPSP

HeLa = test: viability loss in HeLa cells – cell-based, 24 h, cherry-picked samples, cytotoxicity control, dose response (AID 504726); assay type: functional; settings: Homo sapiens;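 also: potency for cytotoxicity as loss of luminescence signal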
ORF 73 = ORF 73 (Human herpesvirus 8, UniProt O40947); test: KSHV LANA DNA-binding disruption – biochemical, fluorescence polarization, cherry-picked samples, dose response (AID 504725); design: species or system Human gammaherpesvirus 8;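 also: fluorescence polarization of a labeled DNA duplex reporting LANA DNA binding; potency is for inhibitors that block LANA binding to the DNA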
[22] = biological target: T8, Small ubiquitin-related modifier 1 (Homo sapiens, UniProt P63165); test: SUMO1 protein interaction blockers, potency – biochemical, fluorescence polarization, uHTS hits, dose response (AID 624382); assay type: functional; settings: read-out: IC50_Mean
[23] = biological target: T9, Probable nicotinate-nucleotide adenylyltransferase (Staphylococcus aureus (strain N315), UniProt P65502); assay type: functional, Staphylococcus aureus subsp. aureus N315;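 as to IC50 Mean: confirmatory dose-response retesting of NadD inhibitor hits first found in an ultra-high-throughput screen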
[24] = biological target: T9, Probable nicotinate-nucleotide adenylyltransferase; assay type: functional, Staphylococcus aureus subsp. aureus N315; settings: read-out: IC50_Mean
[25] = biological target: T8, Small ubiquitin-related modifier 1; test: SUMO1 protein-protein binding blockers, potency – biochemical, FRET, dose response (AID 624383); assay type: functional; settings: read-out: IC50_Mean
[26] = biological target: T10, Rac GTPase-activating protein 1 (Homo sapiens, UniProt Q9H0H5); test: blockers of MgcRacGAP-driven Rac1 GTP hydrolysis – biochemical, ADP Hunter fluorescence, primary and confirmatory, confirmation (AID 624330); assay type: functional
T10 sequence (Q9H0H5 whole entry): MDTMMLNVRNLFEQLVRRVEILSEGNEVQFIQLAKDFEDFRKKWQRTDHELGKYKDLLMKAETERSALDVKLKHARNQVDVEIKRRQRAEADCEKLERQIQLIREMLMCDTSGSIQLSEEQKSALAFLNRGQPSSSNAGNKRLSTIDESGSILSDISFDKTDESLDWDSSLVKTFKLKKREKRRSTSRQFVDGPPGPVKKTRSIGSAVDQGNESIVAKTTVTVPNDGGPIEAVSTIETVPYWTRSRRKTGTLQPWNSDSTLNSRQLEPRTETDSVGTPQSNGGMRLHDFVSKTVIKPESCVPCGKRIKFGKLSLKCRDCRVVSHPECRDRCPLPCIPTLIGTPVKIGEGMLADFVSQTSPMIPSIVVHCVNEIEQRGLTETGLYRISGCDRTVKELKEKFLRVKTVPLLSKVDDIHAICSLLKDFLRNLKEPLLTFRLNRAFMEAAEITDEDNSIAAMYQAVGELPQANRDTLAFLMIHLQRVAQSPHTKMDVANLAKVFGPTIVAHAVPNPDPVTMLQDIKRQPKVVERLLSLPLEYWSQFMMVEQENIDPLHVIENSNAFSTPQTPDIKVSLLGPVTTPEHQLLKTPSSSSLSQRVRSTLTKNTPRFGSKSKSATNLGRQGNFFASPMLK

[27] = biological target: T3, Kappa-type opioid receptor; assay type: functional
Beta-galactosidase = Beta-galactosidase (Escherichia coli, UniProt Q8VNN2); assay type: functional
[28] = biological target: T3, Kappa-type opioid receptor; assay type: functional; remark: listed apart in the source

T3 sequence (P41145 whole entry): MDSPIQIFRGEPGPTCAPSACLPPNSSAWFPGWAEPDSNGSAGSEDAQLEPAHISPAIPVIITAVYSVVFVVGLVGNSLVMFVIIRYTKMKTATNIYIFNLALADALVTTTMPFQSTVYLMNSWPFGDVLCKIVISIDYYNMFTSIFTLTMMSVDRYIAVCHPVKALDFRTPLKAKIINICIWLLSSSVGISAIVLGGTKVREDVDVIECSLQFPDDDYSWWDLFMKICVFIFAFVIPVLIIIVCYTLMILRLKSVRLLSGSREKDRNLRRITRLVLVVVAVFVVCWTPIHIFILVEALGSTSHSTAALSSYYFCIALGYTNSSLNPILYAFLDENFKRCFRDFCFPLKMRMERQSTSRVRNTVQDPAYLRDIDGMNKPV
T2 sequence (P41143 whole entry): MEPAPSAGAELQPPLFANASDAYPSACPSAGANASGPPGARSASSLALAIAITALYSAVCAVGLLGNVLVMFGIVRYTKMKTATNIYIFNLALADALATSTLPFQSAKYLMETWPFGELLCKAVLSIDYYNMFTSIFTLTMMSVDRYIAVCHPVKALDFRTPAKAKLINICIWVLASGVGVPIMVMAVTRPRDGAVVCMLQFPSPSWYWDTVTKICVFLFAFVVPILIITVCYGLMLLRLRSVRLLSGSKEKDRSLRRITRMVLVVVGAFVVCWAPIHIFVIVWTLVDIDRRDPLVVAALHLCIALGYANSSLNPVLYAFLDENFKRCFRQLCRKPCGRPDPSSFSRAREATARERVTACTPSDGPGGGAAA
T1 sequence (P35372 whole entry): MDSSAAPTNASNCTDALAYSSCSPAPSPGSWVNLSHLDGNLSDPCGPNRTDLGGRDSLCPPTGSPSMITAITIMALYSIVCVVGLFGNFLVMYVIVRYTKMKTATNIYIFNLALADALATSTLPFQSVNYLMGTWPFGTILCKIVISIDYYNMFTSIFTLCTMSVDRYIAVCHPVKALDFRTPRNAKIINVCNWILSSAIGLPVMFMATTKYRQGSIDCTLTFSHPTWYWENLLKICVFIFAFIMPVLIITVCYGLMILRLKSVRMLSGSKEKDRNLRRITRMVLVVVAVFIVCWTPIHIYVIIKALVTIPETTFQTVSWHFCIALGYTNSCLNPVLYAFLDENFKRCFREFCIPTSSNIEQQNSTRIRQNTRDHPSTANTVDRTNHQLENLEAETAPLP
T8 sequence (P63165 whole entry): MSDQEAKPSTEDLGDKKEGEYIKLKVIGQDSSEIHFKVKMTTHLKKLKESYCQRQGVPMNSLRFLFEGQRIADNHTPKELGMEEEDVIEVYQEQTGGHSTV
T9 sequence (P65502 whole entry): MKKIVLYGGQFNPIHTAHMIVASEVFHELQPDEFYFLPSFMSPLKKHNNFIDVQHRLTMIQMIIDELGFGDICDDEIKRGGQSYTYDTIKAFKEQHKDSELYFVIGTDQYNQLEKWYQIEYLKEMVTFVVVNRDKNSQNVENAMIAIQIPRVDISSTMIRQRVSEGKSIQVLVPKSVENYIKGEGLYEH
Chain of Protein Rev (P04618 whole entry): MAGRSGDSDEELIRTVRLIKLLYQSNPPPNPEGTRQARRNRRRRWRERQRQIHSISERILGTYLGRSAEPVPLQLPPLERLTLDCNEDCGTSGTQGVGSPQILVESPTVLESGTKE
Chain of Female germline-specific tumor suppressor gld-1 (Q17339 whole entry, the tested form may be a part): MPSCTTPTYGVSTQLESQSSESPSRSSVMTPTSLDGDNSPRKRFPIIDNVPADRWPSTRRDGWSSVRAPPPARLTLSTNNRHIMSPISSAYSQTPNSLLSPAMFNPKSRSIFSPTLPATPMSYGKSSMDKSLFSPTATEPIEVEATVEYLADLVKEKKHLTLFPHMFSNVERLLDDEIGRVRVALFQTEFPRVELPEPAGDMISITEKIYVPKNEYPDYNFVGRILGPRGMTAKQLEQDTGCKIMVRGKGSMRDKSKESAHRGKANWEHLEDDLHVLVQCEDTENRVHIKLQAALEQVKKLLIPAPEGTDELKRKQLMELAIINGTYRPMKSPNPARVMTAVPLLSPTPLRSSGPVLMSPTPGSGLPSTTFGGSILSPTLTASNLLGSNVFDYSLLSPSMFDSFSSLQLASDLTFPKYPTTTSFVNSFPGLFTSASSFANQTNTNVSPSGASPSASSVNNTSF
Chain of Polyadenylate-binding protein 1 (P11940 whole entry): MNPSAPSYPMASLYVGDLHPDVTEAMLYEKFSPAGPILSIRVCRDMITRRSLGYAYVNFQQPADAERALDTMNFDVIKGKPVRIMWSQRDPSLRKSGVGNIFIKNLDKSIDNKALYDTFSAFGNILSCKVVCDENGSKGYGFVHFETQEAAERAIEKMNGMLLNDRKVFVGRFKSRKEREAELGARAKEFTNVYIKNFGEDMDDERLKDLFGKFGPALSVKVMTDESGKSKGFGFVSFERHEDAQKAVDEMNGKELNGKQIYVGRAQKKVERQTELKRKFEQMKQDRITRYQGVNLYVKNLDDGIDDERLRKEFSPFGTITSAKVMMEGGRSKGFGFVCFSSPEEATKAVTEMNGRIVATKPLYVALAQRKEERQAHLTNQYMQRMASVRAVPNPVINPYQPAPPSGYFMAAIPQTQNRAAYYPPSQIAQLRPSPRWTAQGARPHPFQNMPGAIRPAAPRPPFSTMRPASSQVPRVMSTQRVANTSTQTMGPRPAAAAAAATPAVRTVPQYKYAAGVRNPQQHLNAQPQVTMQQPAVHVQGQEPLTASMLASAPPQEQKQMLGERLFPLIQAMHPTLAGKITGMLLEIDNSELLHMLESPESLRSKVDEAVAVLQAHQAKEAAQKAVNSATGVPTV
Chain of Melanin-concentrating hormone receptor 1 (Q99705 whole entry): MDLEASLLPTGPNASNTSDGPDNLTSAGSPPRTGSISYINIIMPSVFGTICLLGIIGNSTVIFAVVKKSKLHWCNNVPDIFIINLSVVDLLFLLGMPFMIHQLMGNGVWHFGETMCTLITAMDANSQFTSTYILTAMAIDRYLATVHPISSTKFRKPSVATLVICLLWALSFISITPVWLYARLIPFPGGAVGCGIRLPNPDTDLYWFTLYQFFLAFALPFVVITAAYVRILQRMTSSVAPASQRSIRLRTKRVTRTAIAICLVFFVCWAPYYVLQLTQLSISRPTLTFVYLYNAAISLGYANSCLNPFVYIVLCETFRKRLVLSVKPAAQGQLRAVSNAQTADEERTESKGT
Chain of Beta-galactosidase (Q8VNN2 whole entry): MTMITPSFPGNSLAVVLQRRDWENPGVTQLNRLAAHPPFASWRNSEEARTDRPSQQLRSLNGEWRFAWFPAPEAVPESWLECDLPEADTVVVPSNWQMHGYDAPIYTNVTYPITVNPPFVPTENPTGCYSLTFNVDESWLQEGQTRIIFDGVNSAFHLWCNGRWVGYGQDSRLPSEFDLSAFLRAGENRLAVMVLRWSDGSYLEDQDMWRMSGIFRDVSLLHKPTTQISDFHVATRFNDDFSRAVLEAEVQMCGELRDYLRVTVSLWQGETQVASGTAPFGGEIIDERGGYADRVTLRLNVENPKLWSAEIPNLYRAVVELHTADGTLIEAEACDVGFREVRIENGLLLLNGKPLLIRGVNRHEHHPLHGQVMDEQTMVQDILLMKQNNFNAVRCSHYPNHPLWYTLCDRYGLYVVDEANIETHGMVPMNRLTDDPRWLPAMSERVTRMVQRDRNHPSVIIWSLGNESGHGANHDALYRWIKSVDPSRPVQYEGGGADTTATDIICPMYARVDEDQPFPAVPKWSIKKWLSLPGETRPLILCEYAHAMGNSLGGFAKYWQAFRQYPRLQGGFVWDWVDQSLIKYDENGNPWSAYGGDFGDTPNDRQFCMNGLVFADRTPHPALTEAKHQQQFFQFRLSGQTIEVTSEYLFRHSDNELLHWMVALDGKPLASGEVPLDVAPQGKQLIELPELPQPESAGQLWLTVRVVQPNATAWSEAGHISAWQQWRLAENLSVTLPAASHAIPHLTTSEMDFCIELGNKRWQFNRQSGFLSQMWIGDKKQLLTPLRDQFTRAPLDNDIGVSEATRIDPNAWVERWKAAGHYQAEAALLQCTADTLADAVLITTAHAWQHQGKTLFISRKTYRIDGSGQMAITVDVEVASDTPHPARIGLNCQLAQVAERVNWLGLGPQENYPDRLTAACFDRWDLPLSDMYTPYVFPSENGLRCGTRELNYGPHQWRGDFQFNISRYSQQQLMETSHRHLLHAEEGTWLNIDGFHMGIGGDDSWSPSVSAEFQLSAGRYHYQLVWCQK

## Cc1ccc(C)c(N2CCN(CCCNC(=O)Cn3c(=O)c4cccn4c4cccnc43)CC2)c1
Mu-type opioid receptor [1]
  EC50: > 32 µM (inactive)
[2]
  EC50: > 32 µM (inactive)
[3]
  IC50: 20.5 µM (inactive)
Mu-type opioid receptor [4]
  IC50: > 32 µM (inactive)
[5]
  EC50: > 32 µM (inactive)
[6]
  IC50: > 32 µM (inactive)
[7]
  IC50: > 10 µM (inactive)

## Cc1ccccc1NC(=O)CSc1ccc(-c2ccco2)nn1
[8]
  IC50: > 100 µM (inactive)
[9]
  IC50: > 100 µM (inactive)

## Cc1c(C=NNC(=O)C2COc3ccccc3O2)c2ccccc2n1C (stereo not drawn)
J774.A1
  IC50: > 25 µM (inactive)

## CCOC(=O)Cn1c(=O)c(-c2cc(Br)ccc2N)nc2ccccc21
Protein Rev
  IC50: 4.53 µM (active)
[10]
  IC50: 25.4 µM (inactive)
[11]
  EC50: > 300 µM (inconclusive)
[12]
  EC50: 26.1 µM (inconclusive)
[13]
  AC50: 0.758 µM (active)
[14]
  AC50: 0.833 µM (active)

## CC(=O)Nc1ccc(Oc2c(Cl)cnn(-c3ccc(C(C)C)cc3)c2=O)cc1
[15]
  IC50: 6.3 µM (active)
[16]
  IC50: 2.1 µM (active)

## COc1ccc(CN(CCNC(=O)c2ccc(CNS(=O)(=O)c3ccccc3)cc2)C(C)C)cc1
Mu-type opioid receptor [17]
  IC50: 14.3 µM (inactive)
[18]
  IC50: > 32 µM (inactive)
[19]
  IC50: 5.58 µM (active)
[20]
  IC50: 1.79 µM (active)

## CCOC(=O)CCNC(=O)Nc1ccc2nc(-c3ccco3)c(-c3ccco3)nc2c1
[21]
  IC50: 0.683 µM (active)

## O=S(=O)(O)c1cc(O)c2ccc(Nc3ccccc3)cc2c1
HeLa
  AC50: 241 µM (active)
ORF 73
  AC50: 95.9 µM (active)
[22]
  IC50: > 66.6 µM (inactive)
[23]
  IC50: 15.9 µM (active)
[24]
  IC50: 40.3 µM (active)
[25]
  IC50: 2.16 µM (active)
[26]
  IC50: 40.9 µM (active)

## CC/C(=N\Nc1ccnc2cc(Cl)ccc12)c1ccc(O)cc1
[27]
  IC50: 4.88 µM (active)
Beta-galactosidase
  EC50: > 31.5 µM (inactive)
[28]
  pIC50: 5.61
